{"source": "patent US20230265438A1", "about": "“NUCLEIC ACIDS FOR INHIBITING EXPRESSION OF CNNM4 IN A CELL” (ASOCIACIÓN CENTRO DE INVESTIGACIÓN COOPERATIVA EN …, priority 2020, published 2023)", "key": {"[1]": {"test_system": "CNNM4 mRNA", "test": "CNNM4 mRNA in liver of wild-type mice after single subcutaneous dose (Examples 12-14)", "assay_type": "in vivo, mouse", "conditions": "wild-type C57BL/6 mice", "experimental": "(§1) Five- to seven-week old male C57BL/6 mice were treated with a single dose of 1 or 5 mg siRNA conjugate per kg body weight by subcutaneous injection. Control groups received a subcutaneous injection with the vehicle PBS. Two weeks after the treatment, liver samples were collected from all mice and snap frozen. RNA was extracted from liver samples and CNNM4 and Actin mRNA levels were determined by Taqman qRT-PCR. Values obtained for CNNM4 mRNA were normalized to values generated for the housekeeping gene Actin and related to mean of untreated sample (ut) set at 1-fold target gene expression. Each bar represents mean value from 6 animals +/-SD.\nFive- to seven-week old male C57BL/6 mice were treated with a single dose of 0.3 or 1 mg siRNA conjugate per kg body weight by subcutaneous injection. Control groups received a subcutaneous injection with the vehicle PBS. Two weeks after the treatment, liver samples were collected from all mice and snap frozen. RNA was extracted from liver samples and CNNM4 and Actin mRNA levels were determined by Taqman qRT-PCR. Values obtained for CNNM4 mRNA were normalized to values generated for the housekeeping gene Actin and related to mean of untreated sample (ut) set at 1-fold target gene expression. Each bar represents mean value from 6 animals +/-SD.\nas §1, with “1” for “1 or 5”, “Five” for “Two”, “PBS treated cohort (PBS)” for “untreated sample (ut)”"}, "[2]": {"test_system": "CNNM4 mRNA", "test": "CNNM4 mRNA in liver of DIO-NASH mice (Example 24)", "assay_type": "in vivo, mouse", "conditions": "1 mg/kg or 5 mg/kg s.c. at 4, 8 and 12 weeks, liver 4 weeks after last treatment, FIG. 30", "experimental": "5-week old C57BL/6 male mice were maintained on a DIO-NASH diet for about 32 weeks and randomized based on pre-liver biopsy fibrosis and steatosis score. Only animals with fibrosis score of ≥ 1 and steatosis score of ≥ 2 were included in the study. Animals were then maintained on DIO-NASH diet for another 16 weeks. At the 4 week, 8 week, and 12 week time points after the pre liver biopsy mice were treated with 1 mg/kg or 5 mg/kg EU422, respectively or with the vehicle PBS by subcutaneous injection. 4 weeks after the last treatment, liver samples were collected from all mice and snap frozen. RNA was extracted from liver samples and CNNM4 and HPRT mRNA levels were determined by Taqman qRT-PCR. Values obtained for CNNM4 mRNA were normalized to values generated for the house keeping gene HPRT and related to mean of untreated sample (ut) set at 1-fold target gene expression. Each bar represents mean value from 15 animals +/-SD."}}, "note": "{VP} = (E)-vinylphosphonate; m = 2'-O-methyl; f = 2'-fluoro", "data": [{"substance": "EU422: CNNM4 siRNA conjugate, duplex EU422A/EU422B; consists of SEQ ID NO: 461 and SEQ ID NO: 462 (chain 1 UGACAAAAGACACAAGAGU; chain 2 ACUCUUGUGUCUUUUGUCA; chain 1: sugars from the 5' end mfmfmfmfmfmfmfmfmfm, 5' {VP}, backbone not given here; chain 2: sugars from the 5' end m6 f3 m10, backbone not given here; undefined (ps2) end linkages, 5' conjugate ST23/ST41 on second strand, further chemistry not fully specified)", "values": [{"measurement": "CNNM4 mRNA levels in the liver", "setting": "[1]; five weeks after single dose of 1 mg/kg s.c., FIG. 20", "value": "reduction of CNNM4 mRNA levels"}, {"measurement": "CNNM4 mRNA levels in the liver", "setting": "[1]; two weeks after single dose of 0.3 or 1 mg/kg s.c., FIG. 19", "value": "reduction of CNNM4 mRNA levels"}, {"measurement": "CNNM4 mRNA levels in the liver", "setting": "[2]", "value": "dose dependent reduction of CNNM4 mRNA levels"}]}]}
